The test system of test [1] is IKH. Type of test: cell-based, canine. As to conditions: for IKH mean current density: at −100 mV; for effect on IKH (in words): substance alone; for IC50: extracellular ion, read-out: IC50 for time-dependent IKH; for IKH activation by carbachol after pertussis toxin pretreatment (in words): 1.5 mg l−1 PTX, 37° C., at least 9 h; for IKH tail current: following hyperpolarization to −120 mV; for increase of IKH tail currents: following a pulse to −120 mV. On the procedure:
(§1) Adult mongrel dogs of either sex (weighing about 20-35 kg) were anaesthetized with pentobarbital (30 mg kg^−1 I.V.) and artificially ventilated with room air. Hearts and adjacent lung tissue were relatively quickly excised through a left lateral thoracotomy and immersed in oxygenated Tyrode solution (composition detailed hereinbelow) at room temperature. […] A left atrial (LA) preparation with the PVs intact was perfused via the left circumflex coronary artery, and subjected to either standard fine-tipped microelectrode recording of action potentials (APs) or cardiomyocyte isolation with collagenase-containing solutions, as previously described (Ehrlich et al. 2003). Six dogs were subjected to atrial tachycardia-induced remodeling induced by 1 week of atrial pacing at about 400 beats min^−1 after ablation of the AV node, as described in Li et al. 1999. Animal care and handling procedures followed the guidelines of the Canadian Council on Animal Care.
To isolate LA and PV cardiomyocytes, the proximal circumflex artery was cannulated and the distal ends of PV myocardial sleeves (approximately 1-1.5 cm from the PV-LA junction) were marked with silk thread prior to subsequent enzyme perfusion with collagenase (100 U ml^−1, Worthington, type II), in order to facilitate localization of PV sleeves after enzymatic digestion. […] All comparisons were based on PV and LA cardiomyocytes isolated from each dog on each experimental day. After isolation, cells were stored at 4° C. and studied on the same day. For standard microelectrode experiments, intact tissue preparations including the LA and adjacent PVs were mounted in a chamber and perfused via the circumflex artery with oxygenated Krebs solution at 36±0.5° C. (see for example Kneller et al. 2002).
(§2) Currents were recorded with the whole-cell patch-clamp technique at 36±0.5° C., as described in Yue et al. 1996. All junction potentials were zeroed prior to formation of gigaohm seals. […] Capacitance was assessed using 5 mV, 10 ms hyperpolarizing steps from a holding potential (HP) of −60 mV. […] Original recordings are shown in terms of current amplitude, but mean data are presented as current density (pA pF−1) to control for variability in cell size.
(§3) Currents were recorded with hyperpolarizing and depolarizing pulses (generally 4 s duration) from a HP of −40 mV to selected test potentials (TPs). Recordings were repeated 3 times, and mean values obtained. For the determination of reversal potentials, tail currents were recorded after 1.6 s pulses to −120 mV followed by 3.2 s depolarizations to TPs between −110 and +20. All voltage protocols were delivered at 0.1 Hz.
(§4) Tyrode solution contained (mM): NaCl 136, KCl 5.4, MgCl2 1, CaCl2 1, NaH2PO4 0.33, Hepes 5 and dextrose 10 (pH 7.35 with NaOH). The cell-storage solution contained (mM): KCl 20, KH2PO4 10, dextrose 10, mannitol 40, L-glutamic acid 70, β-OH-butyric acid 10, taurine 20, EGTA 10 and 0.1% bovine serum albumin (pH 7.3, KOH). Nifedipine (5 μM) was used to suppress L-type Ca^2+ current (ICa) in all experiments. 4-Aminopyridine (4-AP, 2 mM) was added to suppress transient outward current (Ito). […] Na+ current (INa) contamination was avoided by using a HP of −40 mV for recording of hyperpolarization-induced currents and by substitution of equimolar Tris-HCl for external NaCl for tail-current recordings.

Test [2] has as its system holding current. Briefly: Holding current in whole-cell patch-clamp of cardiomyocytes. In kind it is cell-based, canine. On the procedure:
as §2, §3
as §4, with “recordings. When different external K^+ concentrations were applied, the osmolarity was kept constant by proportionate reduction of NaCl content in the solution. The standard internal solution contained (mM): potassium aspartate 110, KCl 20, MgCl2 1, MgATP 5, GTP (lithium salt) 0.1, Hepes 10, sodium phosphocreatine 5 and EGTA 5.0 (pH 7.3 with KOH). In experiments with K+-free internal solution, potassium aspartate was replaced by equimolar caesium aspartate and KCl by CsCl and pH was set to 7.3 with CsOH. For standard-microelectrode experiments, a solution containing (mM): NaCl 120, KCl 4, KH2PO4 1.2, MgSO4 1.2, NaHCO3 25, CaCl2 1.25 and dextrose 5 (95% O2-5% CO2, pH 7.4) was used to perfuse the tissue.” for “recordings.”
Stock solutions of BaCl2 (1 M) and CsCl (1 M) were produced initially and used throughout the experiments. Stock solution of isoproterenol was prepared under protection from light on the day of experiments and freshly prepared ascorbic acid (100 μM) was added in order to prevent isoproterenol oxidization. Carbachol (1 μM) was dissolved in Tyrode solution, tertiapin-Q in 0.1% acetic acid. GTPS (0.1 mM) was used in place of GTP in internal solutions for some experiments. For experiments involving pertussis toxin (PTX, stock solution dissolved in distilled H2O) cells were incubated at 37° C. in 1.5 mg I-1 PTX for at least 9 h prior to experiments. Parallel controls were performed with cells from the same isolates incubated in the same fashion and the same solution, but without PTX. […] Unless otherwise specified, drugs were obtained from Sigma.
A general note: In patch-clamp work, channel activity is measured electrically.

For test [3], the system named is instantaneous inward-rectifier current. The test can be described thus: Whole-cell patch-clamp of instantaneous inward-rectifier current in canine cardiomyocytes. In kind it is cell-based. The following applies: at −120 mV, extracellular ion. On the procedure: as §1
To isolate LA and PV cardiomyocytes, the proximal circumflex artery was cannulated and the distal ends of PV myocardial sleeves (approximately 1-1.5 cm from the PV-LA junction) were marked with silk thread prior to subsequent enzyme perfusion with collagenase (100 U ml^−1, Worthington, type II), in order to facilitate localization of PV sleeves after enzymatic digestion. […] All comparisons were based on PV and LA cardiomyocytes isolated from each dog on each experimental day. After isolation, cells were stored at 4° C. and studied on the same day. […]
Currents were recorded with the whole-cell patch-clamp technique at 36±0.5° C., as described in Yue et al. 1996. […] Capacitance was assessed using 5 mV, 10 ms hyperpolarizing steps from a holding potential (HP) of −60 mV. […]
Currents were recorded with hyperpolarizing and depolarizing pulses (generally 4 s duration) from a HP of −40 mV to selected test potentials (TPs). […] For the determination of reversal potentials, tail currents were recorded after 1.6 s pulses to −120 mV followed by 3.2 s depolarizations to TPs between −110 and +20. […]

Where two headings read alike, the source gives them in different places.

Results on six molecules are retold here after patent publication US20060094003A1, “Acetylcholine-dependent current as a novel ionic target for atrial fibrillation” (priority 2004, published 2006).

With `CC(C)NCC(O)c1ccc(O)c(O)c1` (stereo not shown) [isoproterenol], in test [1] (1 μM isoproterenol, PV cell), the “time to steady-state effect on IKH” value was at most 2 min. For the same molecule, the “IKH mean current density” value is listed as −1.2±0.1 pA pF^−1 in test [1] (10 nM isoproterenol (control −0.9±0.1)), −1.4±0.2 pA pF^−1 in test [1] (100 nM isoproterenol (control −0.9±0.1)) and −1.5±0.1 pA pF^−1 in test [1] (1000 nM isoproterenol (control −0.9±0.1)). In test [1] (at −120 mV, 1 μM isoproterenol in the presence of 200 nM tertiapin-Q), the mean end-pulse current stood at 0.20±0.07 pA pF^−1. Also, the “effect on IKH (in words)” value in test [1] is “increased”. For the same molecule, the “increase of holding current” value in test [2] (10 nM isoproterenol) is on record as 59±14%; in test [2] (100 nM isoproterenol) it was 89±33%; in test [2] (1000 nM isoproterenol), 144±37%. For the same molecule, the holding current was 65±14 pA pF−1 in test [2] (10 nM isoproterenol (control 44±11)), 70±13 pA pF−1 in test [2] (100 nM isoproterenol (control 44±11)) and 87±14 pA pF−1 in test [2] (1000 nM isoproterenol (control 44±11)).
For `[Ba+2].[Cl-].[Cl-]` [Ba^2+, BaCl2], the “inhibition of IKH (in words)” value in test [1] (1 μM, most cells) is recorded as “inhibited IKH appreciably”; in test [1] (10 μM), “full inhibition”. In addition, the IC50 (as a rule, the concentration at which inhibition is half-maximal) in test [1] (at −120 mV) was 2 ± 0.3 µM; in test [3], 76 ± 17.9 µM.
Turning to `[Cl-].[Cs+]` [Cs^+, CsCl], the values for the 50% inhibitory concentration (IC50) in test [1] (at −120 mV) and in test [3] were 184 ± 18.2 µM and 139 ± 34.2 µM, respectively.
Consider pertussis toxin, for which the “IKH activation by carbachol after pertussis toxin pretreatment (in words)” value in test [1] (1 μM carbachol) is given as “prevented”; in test [1] (1 μM carbachol, listed as PTX) it was “attenuated”. Moreover, the IKH density in test [1] (at −120 mV, cells preincubated with PTX, before carbachol) was −6.4±0.8 pA pF^−1. Also, the IKH tail current in test [1] (PTX-preincubated cells, before carbachol) came out at 1.8±0.6 pA pF^−1.
For `C[N+](C)(C)CCOC(N)=O` [carbachol], in test [1] (1 μM carbachol, voltages between −120 and −90 mV, PV cells), the “average increase of IKH” value is recorded as 188±54%. Also, the IKH current density in test [1] (at −120 mV, 1 μM carbachol, GTP-containing pipettes (before −6.2±1.0)) is on record as −10.0±1.2 pA pF^−1; in test [1] (at −120 mV, 1 μM carbachol, GTP-free pipettes (before −8.3±0.7)), −8.3±1.1 pA pF^−1; in test [1] (at −120 mV, 1 μM carbachol, LA cells (baseline −1.9±0.4)), −4.9±1.1 pA pF^−1; in test [1] (at −120 mV, 1 μM carbachol, PV cells (baseline −2.6±0.5)) it was −5.0±0.6 pA pF^−1. Also, the IKH density in test [1] (at −120 mV, carbachol, cells incubated without PTX at 37° C. >9 h (before −6.2±1.8)) is −11.5±1.8 pA pF^−1; in test [1] (at −120 mV, carbachol, cells preincubated with PTX) it was −5.5±1.2 pA pF−1. The “increase of IKH tail currents” value in test [1] (carbachol, PTX-treated cells) came out at 127±37%; in test [1] (carbachol, cells incubated without PTX), 538±170%. For the same molecule, the IKH tail current in test [1] (after carbachol, PTX-free conditions (before 2.1±0.7)) is reported as 8.4±1.6 pA pF^−1; in test [1] (after carbachol, PTX-preincubated cells), 3.4±0.9 pA pF^−1. Besides, in test [1], the “effect on IKH (in words)” value is on record as “increased”.
Turning to `Nc1nc2c(ncn2[C@@H]2O[C@H](COP(=O)(O)OP(=O)(O)OP(O)(O)=S)[C@@H](O)[C@H]2O)c(=O)[nH]1` [GTPS], in test [1] (GTPS 0.1 mM in place of GTP), the “further IKH response to carbachol with GTPS in the pipette (in words)” value is “fully prevented”. In addition, the IKH current density in test [1] (at −120 mV, GTPS in pipette, no cholinergic stimulation (regular GTP −3.8±0.6)) is −8.2±0.8 pA pF^−1. Further, in test [1], the “effect on IKH (in words)” value is reported as “increased”.
